ChEMBL document CHEMBL1201862, “PubChem BioAssay data set” (2004)
The source made the active and inactive calls.

How the values were obtained:
[1] = target: T1, High affinity choline transporter 1 (Homo sapiens, UniProt Q9GZV3); assay: CHT inhibitors, dose response, cell-based, 5-point CRC, membrane potential dye (AID 504840); assay type: functional
T1 sequence (Q9GZV3 whole entry): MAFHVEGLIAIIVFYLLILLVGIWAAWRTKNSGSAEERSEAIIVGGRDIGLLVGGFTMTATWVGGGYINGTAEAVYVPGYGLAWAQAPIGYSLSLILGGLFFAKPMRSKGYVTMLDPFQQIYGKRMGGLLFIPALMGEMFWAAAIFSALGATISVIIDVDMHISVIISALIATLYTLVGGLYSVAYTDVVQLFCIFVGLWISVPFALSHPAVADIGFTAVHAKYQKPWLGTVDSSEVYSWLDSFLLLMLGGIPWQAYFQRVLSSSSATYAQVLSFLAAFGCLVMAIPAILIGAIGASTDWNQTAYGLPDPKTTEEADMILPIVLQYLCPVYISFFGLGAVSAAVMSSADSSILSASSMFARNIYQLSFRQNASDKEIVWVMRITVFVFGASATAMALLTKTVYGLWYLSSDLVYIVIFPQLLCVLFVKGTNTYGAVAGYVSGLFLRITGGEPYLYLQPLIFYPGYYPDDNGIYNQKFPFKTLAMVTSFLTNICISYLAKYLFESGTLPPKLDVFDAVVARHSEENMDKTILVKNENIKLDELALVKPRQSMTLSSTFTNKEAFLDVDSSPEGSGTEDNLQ

[2] = target: T1, High affinity choline transporter 1; assay: CHT inhibitors, dose response, cell-based, 10-point CRC, membrane potential dye (AID 588401); assay type: functional;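 note: membrane potential dye fluorescence of choline-evoked depolarization via CHT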
[3] = cells; assay type: functional, cell-based
[4] = target: T2, Nuclear receptor subfamily 0 group B member 1 (Homo sapiens, UniProt P51843); assay type: functional, cell-based;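 note: HEK293T cells transfected with SF-1 and DAX-1 plus StAR promoter luciferase reporter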
T2 sequence (P51843 whole entry): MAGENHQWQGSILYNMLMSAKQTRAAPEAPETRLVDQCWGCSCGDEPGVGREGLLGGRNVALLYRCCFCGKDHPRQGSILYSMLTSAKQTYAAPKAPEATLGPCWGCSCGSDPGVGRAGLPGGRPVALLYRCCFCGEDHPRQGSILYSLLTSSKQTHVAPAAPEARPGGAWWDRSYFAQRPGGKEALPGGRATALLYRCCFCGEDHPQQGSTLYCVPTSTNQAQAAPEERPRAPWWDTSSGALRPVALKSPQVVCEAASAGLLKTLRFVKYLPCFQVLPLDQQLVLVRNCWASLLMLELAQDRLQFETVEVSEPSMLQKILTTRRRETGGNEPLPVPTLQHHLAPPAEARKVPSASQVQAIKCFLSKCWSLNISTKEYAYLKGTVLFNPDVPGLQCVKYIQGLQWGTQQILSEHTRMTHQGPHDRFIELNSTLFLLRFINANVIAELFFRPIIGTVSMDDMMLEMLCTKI

Structure (SMILES): O=C(Nc1c(C(=O)N2CCC(N3CCCCC3)CC2)oc2ccccc12)c1ccc(F)cc1
- IC50 [1]: 0.91 µM (active)
- IC50 [2]: 1.63 µM (active)
- IC50 [3]: > 67.5 µM (inactive)
- IC50 [4]: > 67.5 µM (inactive)
